Experimental data taken from paper PMC5634495 (Scientific Reports, 2017).

What was measured:
[1] = system: nAChR-mediated pharyngeal pumping in C. elegans (nAChR EAT-2); set-up: species or system Caenorhabditis elegans; conditions: in vivo
[2] = system: locomotor activity of mice; conditions: mouse, in vivo
α4β2 nAChR = α4β2 nAChR (Homo sapiens, UniProt P17787+P43681); assay: cell-based
[3] = biological target: T1, acetylcholine binding protein derived from Lymnaea stagnalis (L-AChBP) (Lymnaea stagnalis, UniProt P58154 20-229); assay: SPR; conditions: both partners purified
T1 construct: also called Synthetic Lymnaea stagnalis AChBP
T1 sequence (P58154 20-229): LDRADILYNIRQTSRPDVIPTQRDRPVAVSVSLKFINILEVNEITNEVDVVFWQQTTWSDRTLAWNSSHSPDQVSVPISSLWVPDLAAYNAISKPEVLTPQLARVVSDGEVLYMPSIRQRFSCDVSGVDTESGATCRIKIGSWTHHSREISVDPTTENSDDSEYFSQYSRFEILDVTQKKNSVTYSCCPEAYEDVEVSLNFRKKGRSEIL

α4β2 nAChR, sequence (P43681 29-627 limits assumed): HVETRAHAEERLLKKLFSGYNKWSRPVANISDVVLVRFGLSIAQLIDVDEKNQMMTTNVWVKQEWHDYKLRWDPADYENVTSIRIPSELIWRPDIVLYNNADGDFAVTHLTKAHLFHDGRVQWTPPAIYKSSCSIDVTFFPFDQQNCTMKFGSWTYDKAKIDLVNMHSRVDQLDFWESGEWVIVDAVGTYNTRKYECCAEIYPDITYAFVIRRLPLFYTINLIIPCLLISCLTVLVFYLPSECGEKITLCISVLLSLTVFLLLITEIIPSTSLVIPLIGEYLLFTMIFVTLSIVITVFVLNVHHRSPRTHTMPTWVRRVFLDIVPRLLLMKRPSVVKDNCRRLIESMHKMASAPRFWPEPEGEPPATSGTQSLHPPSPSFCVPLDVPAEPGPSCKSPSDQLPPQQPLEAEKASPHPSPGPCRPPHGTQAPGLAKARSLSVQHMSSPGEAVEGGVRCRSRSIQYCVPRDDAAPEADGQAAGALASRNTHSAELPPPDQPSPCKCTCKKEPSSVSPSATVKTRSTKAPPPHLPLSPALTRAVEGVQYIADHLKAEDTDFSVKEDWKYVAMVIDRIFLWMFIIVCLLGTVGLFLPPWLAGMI
α4β2 nAChR, sequence (P17787 26-502 limits assumed): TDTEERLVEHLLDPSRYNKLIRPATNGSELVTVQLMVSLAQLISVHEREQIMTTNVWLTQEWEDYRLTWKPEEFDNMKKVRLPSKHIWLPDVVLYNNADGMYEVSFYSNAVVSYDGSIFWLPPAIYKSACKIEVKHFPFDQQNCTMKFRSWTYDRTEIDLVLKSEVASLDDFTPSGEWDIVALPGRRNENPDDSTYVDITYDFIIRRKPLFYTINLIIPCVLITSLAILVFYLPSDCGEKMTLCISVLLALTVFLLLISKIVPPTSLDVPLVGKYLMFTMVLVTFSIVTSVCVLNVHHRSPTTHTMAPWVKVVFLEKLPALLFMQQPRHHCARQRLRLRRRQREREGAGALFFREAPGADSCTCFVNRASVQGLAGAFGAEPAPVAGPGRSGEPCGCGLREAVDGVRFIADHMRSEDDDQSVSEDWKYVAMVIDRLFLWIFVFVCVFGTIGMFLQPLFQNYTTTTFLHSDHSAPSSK

Molecule | average pharyngeal pumping frequency (in words) [1] | worms in which pharyngeal pumping was absent [1] | locomotor activity in novel-environment behaviour test (in words) [2] | IC50 (α4β2 nAChR) [µM] | binding result [3]
CC[C@H](C)[C@H](NC(=O)[C@H](CC(=O)O)NC(=O)[C@H](CS)NC(=O)[C@H](CO)NC(=O)[C@@H](NC(=O)CNC(=O)[C@H](CC(C)C)NC(=O)[C@H](CCCNC(=N)N)NC(=O)[C@H](C)NC(=O)[C@H](CC(N)=O)NC(=O)[C@H](CCC(=O)O)NC(=O)[C@@H]1CCCN1C(=O)[C@H](CCSC)NC(=O)[C@H](Cc1c[nH]c2ccccc12)NC(=O)[C@@H](NC(=O)[C@@H](NC(=O)[C@@H](N)Cc1ccc(O)cc1)[C@@H](C)O)[C@@H](C)CC)[C@@H](C)O)C(=O)N[C@@H](Cc1ccccc1)C(=O)N[C@H](C(=O)N[C@@H](CC(N)=O)C(=O)N[C@@H](CO)C(=O)N[C@@H](CCCNC(=N)N)C(=O)NCC(=O)N[C@@H](CCCCN)C(=O)N[C@@H](CCCNC(=N)N)C(=O)N[C@@H](C)C(=O)N[C@@H](CO)C(=O)N[C@@H](CCCCN)C(=O)NCC(=O)O)[C@@H](C)O [RV-183A] | significantly reduced | six out of seven | increased locomotor activity | 465 to 2620 | –
CC[C@H](C)[C@H](NC(=O)[C@H](CC(=O)O)NC(=O)[C@H](CS)NC(=O)[C@H](CO)NC(=O)[C@@H](NC(=O)CNC(=O)[C@H](CC(C)C)NC(=O)[C@H](CCCNC(=N)N)NC(=O)[C@@H]1CCCN1C(=O)[C@H](CC(N)=O)NC(=O)[C@H](CCC(=O)O)NC(=O)[C@@H]1CCCN1C(=O)[C@H](CCSC)NC(=O)[C@H](Cc1c[nH]c2ccccc12)NC(=O)[C@@H](NC(=O)[C@@H](NC(=O)[C@@H](N)Cc1ccc(O)cc1)[C@@H](C)O)[C@@H](C)CC)[C@@H](C)O)C(=O)N[C@@H](Cc1ccccc1)C(=O)N[C@H](C(=O)N[C@@H](CC(N)=O)C(=O)N[C@@H](CO)C(=O)N[C@@H](CCCNC(=N)N)C(=O)NCC(=O)N[C@@H](CCCCN)C(=O)N[C@@H](CCCNC(=N)N)C(=O)N[C@@H](C)C(=O)N[C@@H](CO)C(=O)N[C@@H](CCCCN)C(=O)NCC(=O)O)[C@@H](C)O [RV-183P] | – | – | increased locomotor activity | 185 to 314 | –
GSEPKWYRTKDRASPGSNFTITLMGRCNI [Scrambled, reference compound] | – | – | No difference | – | –
YTIWMPENPRLGTSCDIFTNSRGKRASKG [RV-183P] | – | – | – | – | binds
YTIWMPENLRLGTSCDIFTNSRGKRASKG [RV-183L] | – | – | – | – | binds
